Reference: patent publication US7709482B2, “Polycyclic heteroaryl substituted triazoles useful as Axl inhibitors” (Rigel Pharmaceuticals, Inc., priority 2006, dated 2010)

molecular target: T1, Axl (Homo sapiens, UniProt P30530); experiment: Phospho-Akt In-Cell Western Assay (inhibition of Axl activity after Axl-antibody cross-linking); assay type: cell-based; conditions: Hela cells, phospho-Akt chemiluminescence normalized to relative cell number; compounds of formula (Ia), Table 1; read-out: IC50
T1 construct: endogenous in cells; host or cells: HeLa cells
T1 sequence (P30530 26-894): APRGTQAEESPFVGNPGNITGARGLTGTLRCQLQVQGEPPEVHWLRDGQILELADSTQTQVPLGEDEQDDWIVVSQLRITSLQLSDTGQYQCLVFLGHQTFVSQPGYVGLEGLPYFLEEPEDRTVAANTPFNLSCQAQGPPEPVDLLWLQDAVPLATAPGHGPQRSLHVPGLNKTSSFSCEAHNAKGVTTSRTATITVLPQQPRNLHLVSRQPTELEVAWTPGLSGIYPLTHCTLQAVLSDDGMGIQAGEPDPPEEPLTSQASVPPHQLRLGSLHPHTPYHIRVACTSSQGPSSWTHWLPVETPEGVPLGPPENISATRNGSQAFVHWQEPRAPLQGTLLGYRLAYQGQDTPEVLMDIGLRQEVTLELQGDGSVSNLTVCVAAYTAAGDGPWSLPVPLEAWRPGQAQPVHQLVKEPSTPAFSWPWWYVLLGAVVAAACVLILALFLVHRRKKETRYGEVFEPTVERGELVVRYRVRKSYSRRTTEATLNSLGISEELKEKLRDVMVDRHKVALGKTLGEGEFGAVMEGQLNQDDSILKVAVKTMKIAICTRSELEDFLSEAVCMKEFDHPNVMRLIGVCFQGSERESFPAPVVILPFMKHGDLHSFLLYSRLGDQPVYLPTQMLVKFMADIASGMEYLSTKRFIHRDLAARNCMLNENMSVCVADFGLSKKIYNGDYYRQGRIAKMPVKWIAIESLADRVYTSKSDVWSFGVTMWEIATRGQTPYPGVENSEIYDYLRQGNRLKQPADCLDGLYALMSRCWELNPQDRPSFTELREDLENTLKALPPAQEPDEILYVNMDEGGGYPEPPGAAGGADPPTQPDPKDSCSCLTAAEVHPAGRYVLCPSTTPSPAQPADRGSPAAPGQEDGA
Method in brief: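 Phospho-Akt was detected in formaldehyde-fixed cells by in-cell immunostaining with HRP chemiluminescence. Before fixation, HeLa cells kept 24 h in low-serum medium containing 500 ng/mL Axl/Fc received compound for 1 h at 37 °C, followed by 5-min Axl activation through antibody clustering.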

Row | Structure (SMILES) | IC50 [nM]
1 | Nc1nc(Nc2cccnc2)nn1-c1cc2c(nn1)-c1ccccc1CCC2 [Compound 93, 1-(6,7-dihydro-5H-benzo[6,7]cyclohepta[1,2-c]pyridazin-3-yl)-N^3-(pyridin-3-yl)-1H-1,2,4-triazole-3,5-diamine] | > 20000
2 | Nc1ccc(-c2ccc(Nc3nc(N)n(-c4cc5c(nn4)-c4ccccc4CCC5)n3)cn2)cn1 [Compound 94, 1-(6,7-dihydro-5H-benzo[6,7]cyclohepta[1,2-c]pyridazin-3-yl)-N^3-(6-(6-aminopyridin-3-yl)pyridine-3-yl)-1H-1,2,4-triazole-3,5-diamine] | > 20000
3 | Nc1cccc(-c2ccc(Nc3nc(N)n(-c4cc5c(nn4)-c4ccccc4CCC5)n3)cn2)c1 [Compound 95, 1-(6,7-dihydro-5H-benzo[6,7]cyclohepta[1,2-c]pyridazin-3-yl)-N^3-(6-(3-aminophenyl)pyridine-3-yl)-1H-1,2,4-triazole-3,5-diamine] | > 20000
4 | N#Cc1cccc(-c2ccc(Nc3nc(N)n(-c4cc5c(nn4)-c4ccccc4CCC5)n3)cn2)c1 [Compound 96, 1-(6,7-dihydro-5H-benzo[6,7]cyclohepta[1,2-c]pyridazin-3-yl)-N^3-(6-(3-cyanophenyl)pyridine-3-yl)-1H-1,2,4-triazole-3,5-diamine] | > 20000
5 | Nc1nc(Nc2ccc(-c3ccc4c(c3)OCO4)nc2)nn1-c1cc2c(nn1)-c1ccccc1CCC2 [Compound 97, 1-(6,7-dihydro-5H-benzo[6,7]cyclohepta[1,2-c]pyridazin-3-yl)-N^3-(6-(benzo[d][1,3]dioxole-6-yl)pyridine-3-yl)-1H-1,2,4-triazole-3,5-diamine] | > 20000
6 | CS(=O)(=O)Nc1cccc(-c2ccc(Nc3nc(N)n(-c4cc5c(nn4)-c4ccccc4CCC5)n3)cn2)c1 [Compound 98, 1-(6,7-dihydro-5H-benzo[6,7]cyclohepta[1,2-c]pyridazin-3-yl)-N^3-(6-(3-methylsulfonamidylphenyl)-pyridine-3-yl)-1H-1,2,4-triazole-3,5-diamine] | > 20000
7 | CN1CCC(c2ccc(Nc3nc(N)n(-c4cc5c(nn4)-c4ccccc4CCC5)n3)cc2)CC1 [Compound 99, 1-(6,7-dihydro-5H-benzo[6,7]cyclohepta[1,2-c]pyridazin-3-yl)-N^3-(4-(methylpiperidin-4-yl)phenyl)-1H-1,2,4-triazole-3,5-diamine] | < 1000
8 | Nc1nc(Nc2ccc3c(c2)OCCCO3)nn1-c1cc2c(nn1)-c1ccccc1CCC2 [Compound 100, 1-(6,7-dihydro-5H-benzo[6,7]cyclohepta[1,2-c]pyridazin-3-yl)-N^3-(3,4-dihydro-2H-benzo[b][1,4]dioxepin-7-yl)-1H-1,2,4-triazole-3,5-diamine] | 1000 to 10000
9 | Nc1nc(Nc2ccc(N3CCC(N4CCCC4)CC3)cc2)nn1-c1cc2c(nn1)-c1ccccc1CCC2 [Compound 101, 1-(6,7-dihydro-5H-benzo[6,7]cyclohepta[1,2-c]pyridazin-3-yl)-N^3-(4-(4-pyrrolidin-1-ylpiperidinyl)phenyl)-1H-1,2,4-triazole-3,5-diamine] | < 1000
10 | Nc1nc(Nc2ccc(CN3CCC(N4CCCC4)CC3)cc2)nn1-c1cc2c(nn1)-c1ccccc1CCC2 [Compound 103, 1-(6,7-dihydro-5H-benzo[6,7]cyclohepta[1,2-c]pyridazin-3-yl)-N^3-(4-((4-pyrrolidin-1-ylpiperidinyl)methyl)phenyl)-1H-1,2,4-triazole-3,5-diamine] | < 1000
11 | Nc1nc(Nc2ccc(CN3CCN(C4CCCC4)CC3)cc2)nn1-c1cc2c(nn1)-c1ccccc1CCC2 [Compound 104, 1-(6,7-dihydro-5H-benzo[6,7]cyclohepta[1,2-c]pyridazin-3-yl)-N^3-(4-((4-cyclopentylpiperazinyl)-methyl)phenyl)-1H-1,2,4-triazole-3,5-diamine] | < 1000
12 | Cc1cc(Nc2nc(N)n(-c3cc4c(nn3)-c3ccccc3CCC4)n2)ccc1N1CCC(N2CCCC2)CC1 [Compound 106, 1-(6,7-dihydro-5H-benzo[6,7]cyclohepta[1,2-c]pyridazin-3-yl)-N^3-(3-methyl-4-(4-pyrrolidin-1-ylpiperidinyl)phenyl)-1H-1,2,4-triazole-3,5-diamine] | < 1000
13 | Nc1nc(Nc2ccc(N3CCN(C4CCCC4)CC3)c(F)c2)nn1-c1cc2c(nn1)-c1ccccc1CCC2 [Compound 107, 1-(6,7-dihydro-5H-benzo[6,7]cyclohepta[1,2-c]pyridazin-3-yl)-N^3-(3-fluoro-4-(4-cyclopentylpiperazinyl)-phenyl)-1H-1,2,4-triazole-3,5-diamine] | < 1000
14 | CC(C)N1CCN(Cc2ccc(Nc3nc(N)n(-c4cc5c(nn4)-c4ccccc4CCC5)n3)cc2)CC1 [Compound 108, 1-(6,7-dihydro-5H-benzo[6,7]cyclohepta[1,2-c]pyridazin-3-yl)-N^3-(4-((4-isopropylpiperazinyl)methyl)-phenyl)-1H-1,2,4-triazole-3,5-diamine] | < 1000
15 | CN1CCC(N2CCN(c3ccc(Nc4nc(N)n(-c5cc6c(nn5)-c5ccccc5CCC6)n4)cc3F)CC2)CC1 [Compound 109, 1-(6,7-dihydro-5H-benzo[6,7]cyclohepta[1,2-c]pyridazin-3-yl)-N^3-(3-fluoro-4-(4-N-methylpiperidin-4-ylpiperazinyl)phenyl)-1H-1,2,4-triazole-3,5-diamine] | < 1000
16 | CN1CCC2(CCN(c3ccc(Nc4nc(N)n(-c5cc6c(nn5)-c5ccccc5CCC6)n4)cc3F)C2)C1 (stereo not drawn) [Compound 110, 1-(6,7-dihydro-5H-benzo[6,7]cyclohepta[1,2-c]pyridazin-3-yl)-N^3-(3-fluoro-4-(7-methyl-2,7-diazaspiro[4.4]nonan-2-yl)phenyl)-1H-1,2,4-triazole-3,5-diamine] | < 1000
17 | CC(C)N1CCN(c2ccc(Nc3nc(N)n(-c4cc5c(nn4)-c4ccccc4CCC5)n3)cc2F)CC1 [Compound 111, 1-(6,7-dihydro-5H-benzo[6,7]cyclohepta[1,2-c]pyridazin-3-yl)-N^3-(3-fluoro-4-(N-isopropylpiperazin-1-yl)phenyl)-1H-1,2,4-triazole-3,5-diamine] | < 1000
18 | Nc1nc(Nc2ccc(N3CC(N4CCCC4)C3)c(F)c2)nn1-c1cc2c(nn1)-c1ccccc1CCC2 [Compound 113, 1-(6,7-dihydro-5H-benzo[6,7]cyclohepta[1,2-c]pyridazin-3-yl)-N^3-(3-fluoro-4-(3-pyrrolidin-1-ylazetidinyl)phenyl)-1H-1,2,4-triazole-3,5-diamine] | < 1000
19 | Cc1cc(Nc2nc(N)n(-c3cc4c(nn3)-c3ccccc3CCC4)n2)ccc1N1CCC(N2CCN(C)CC2)CC1 [Compound 114, 1-(6,7-dihydro-5H-benzo[6,7]cyclohepta[1,2-c]pyridazin-3-yl)-N^3-(3-methyl-4-(4-(N-methylpiperazin-4-yl)piperidin-1-yl)phenyl)-1H-1,2,4-triazole-3,5-diamine] | < 1000
20 | Nc1nc(Nc2ccc(N3CC[C@@H](CN4CCCC4)C3)c(F)c2)nn1-c1cc2c(nn1)-c1ccccc1CCC2 [Compound 115, 1-(6,7-dihydro-5H-benzo[6,7]cyclohepta[1,2-c]pyridazin-3-yl)-N^3-(3-fluoro-4-((S)-3-(pyrrolidin-1-ylmethyl)pyrrolidinyl)phenyl)-1H-1,2,4-triazole-3,5-diamine] | 1000 to 10000
21 | Nc1nc(Nc2ccc(N3CCC(N4CCCC4)CC3)cc2)nn1-c1cc2c(nn1)-c1ccccc1OCC2 [Compound 116, 1-(6,7-dihydro-5H-benzo[2,3]oxepino[4,5-c]pyridazin-3-yl)-N^3-(4-(4-pyrrolidin-1-ylpiperidinyl)phenyl)-1H-1,2,4-triazole-3,5-diamine] | 1000 to 10000
22 | Nc1nc(Nc2ccc(N3CCC(N4CCCC4)CC3)c(F)c2)nn1-c1cc2c(nn1)-c1ccccc1OCC2 [Compound 117, 1-(6,7-dihydro-5H-benzo[2,3]oxepino[4,5-c]pyridazin-3-yl)-N^3-(3-fluoro-4-(4-pyrrolidin-1-ylpiperidinyl)phenyl)-1H-1,2,4-triazole-3,5-diamine] | < 1000
23 | Nc1nc(Nc2ccc3oc(CN4CCCC4)nc3c2)nn1-c1cc2c(nn1)-c1ccccc1OCC2 [Compound 118, 1-(6,7-dihydro-5H-benzo[2,3]oxepino[4,5-c]pyridazin-3-yl)-N^3-(2-(pyrrolidin-1-ylmethyl)benzo[d]oxazol-5-yl)-1H-1,2,4-triazole-3,5-diamine] | 1000 to 10000
24 | Nc1nc(Nc2ccc(N3CCC(N4CCCC4)CC3)c(F)c2)nn1-c1cc2c(nn1)-c1ccccc1SCC2 [Compound 119, 1-(6,7-dihydro-5H-benzo[2,3]thiepino[4,5-c]pyridazin-3-yl)-N^3-(3-fluoro-4-(4-pyrrolidin-1-ylpiperidinyl)phenyl)-1H-1,2,4-triazole-3,5-diamine] | < 1000
